The source of these data is patent US11040028B2, “Penicinotam derivative, preparation method and use thereof” (OCEAN UNIVERSITY OF CHINA, priority 2017, dated 2021).

Assay type in all cases: cell-based
One assay concerns BHK-21 cells. Kind of assay: Anti-fibrosis activity test: inhibition of BHK-21 cell proliferation (CCK-8). The note with it: Mesocricetus auratus, BHK-21, 48 h, CCK-8, 48 hours after administration. In a few lines: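 Read-out: CCK-8 absorbance at 450 nm after 2 h, giving proliferation inhibition (1−Ai/Ao)×100% versus blank control, from which IC50 was derived. Cells had been treated with compounds for 48 h after 24 h adherence at 37° C. Pirfenidone served as positive control.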

Assay [1] relates to human lung fibroblasts HFL1. Kind of assay: Anti-fibrosis activity test: inhibition of proliferation of human lung fibroblasts HFL1 (CCK-8). Particulars: Homo sapiens, HFL1, 48 h, human lung fibroblasts HFL1, CCK-8, 48 hours. In a few lines: (§1)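 48 h compound treatment of fibroblast-type cells seeded at 2×10^4 cells/mL, 37° C, 5% CO2; viability by CCK-8 (2 h, A450). Inhibition rate calculated against blank control, IC50 by curve fitting; pirfenidone served as reference.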

The test system of assay [2] is human hepatic stellate cells LX-2. Kind of assay: Anti-fibrosis activity test: inhibition of proliferation of human hepatic stellate cells LX-2 (CCK-8). The note with it: Homo sapiens, 48 h, human hepatic stellate cells LX-2, CCK-8, 48 hours. In a few lines:
as §1

Assay [3] relates to human fibrosarcoma cells HT-1080. Kind of assay: Anti-fibrosis activity test: inhibition of proliferation of human fibrosarcoma cells HT-1080 (CCK-8). Particulars: Homo sapiens, HT-1080, 48 h, human fibrosarcoma cells HT-1080, CCK-8, 48 hours. In a few lines:
as §1

Assay [4] relates to human dermal fibroblasts CCC-ESF-1. Kind of assay: Anti-fibrosis activity test: inhibition of proliferation of human dermal fibroblasts CCC-ESF-1 (CCK-8). Particulars: Fibroblast; human dermal fibroblasts CCC-ESF-1, CCK-8, 48 hours. In a few lines:
as §1

Assay [5] relates to human embryonic lung fibroblast IMR-90. Kind of assay: Anti-fibrosis activity test: inhibition of proliferation of human embryonic lung fibroblast IMR-90 (CCK-8). Particulars: human embryonic lung fibroblast IMR-90, CCK-8, 48 hours. In a few lines:
as §1

For assay [6], the system named is cardiac fibroblast RAT-iCell-C002. Kind of assay: Anti-fibrosis activity test: inhibition of proliferation of cardiac fibroblast RAT-iCell-C002 (CCK-8). Particulars: Cardiac fibroblast, 48 h, cardiac fibroblast RAT-iCell-C002, CCK-8, 48 hours. In a few lines: as §1
Assay [7] deals with mouse macrophages (RAW264.7). Kind of assay: Lipopolysaccharide-induced NO secretion in macrophages (Griess). The note with it: Mus musculus, RAW264.7, 24 h, RAW264.7, LPS 1 μg/ml, a/b isomers given as first/second symbol, read-out: IC50 (μM), inhibition of lipopolysaccharide-induced NO secretion in macrophages. In a few lines:
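RAW264.7 macrophages in DMEM with 10% FBS received test samples at several concentrations and were stimulated with 1 μg/ml LPS for 24 h. NO in the supernatant was measured with the Griess reagent at 548 nm, […].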
In general terms: The Griess reaction detects nitrite, a stable product of nitric oxide.

A value given as a limit tells only on which side of the number the result lay.

Consider `CCn1c2c(c(=O)c3cc(F)c(N4CCNCC4)cc31)C(=O)n1cccc1-2` [Compound 329a, 4-Ethyl-7-fluoro-6-(piperazin-1-yl)-9H-pyrrolizino[1,2-b]quinoline-9,10(4H)-dione], for which the half-inhibitory concentration (IC50) (with BHK-21 cells; in assay [1]; in assay [2]; in assay [3]; in assay [4]; in assay [5]) was 0.05 to 5 mM in each case. For the same compound, the figures for the IC50 in assay [6] and in assay [7] were 5 to 20 mM and 1 to 10 µM, respectively.

As to `CCOc1c2c(nc3cc(N4CCNCC4)c(F)cc13)-c1cccn1C2=O` [Compound 329b, 9-ethoxy-7-fluoro-6-(piperazin-1-yl)-10H-pyrrolizino[1,2-b]quinolin-10-one], the IC50 (in the assay with BHK-21 cells; in assay [1]; in assay [2]; in assay [3]; in assay [4]; in assay [5]) was 0.05 to 5 mM in each case. The IC50 in assay [6] is less than 0.05 mM; in assay [7], 1 to 10 µM.

For `CC(C)n1c2c(c(=O)c3cc(F)c(N4CCNCC4)cc31)C(=O)n1cccc1-2` [Compound 331a, 7-Fluoro-4-isopropyl-6-(piperazin-1-yl)-9H-pyrrolizino[1,2-b]quinoline-9,10(4H)-dione], the half-maximal inhibitory concentration (IC50) (with BHK-21 cells; in assay [1]; in assay [2]; in assay [3]; in assay [4]; in assay [5]) was 0.05 to 5 mM each time. The IC50 in assay [6] lay in the range of 0.05 to 5 mM; in assay [7], 1 to 10 µM.

Turning to `CC(C)Oc1c2c(nc3cc(N4CCNCC4)c(F)cc13)-c1cccn1C2=O` [Compound 331b, 7-fluoro-9-isopropoxy-6-(piperazin-1-yl)-10H-pyrrolizino[1,2-b]quinolin-10-one], the IC50 with BHK-21 cells was 0.05 to 5 mM; in assay [1], 0.05 to 5 mM; in assay [2], 0.05 to 5 mM; in assay [3], less than 0.05 mM; in assay [4] it was 0.05 to 5 mM; in assay [5], 0.05 to 5 mM. In addition, the half-maximal inhibitory concentration (IC50) lay in the range of 0.05 to 5 mM in assay [6] and 1 to 10 µM in assay [7].

For `O=C1c2c(n(C3CC3)c3cc(N4CCNCC4)c(F)cc3c2=O)-c2cccn21` [Compound 340a, 4-Cyclopropyl-7-fluoro-6-(piperazin-1-yl)-9H-pyrrolizino[1,2-b]quinoline-9,10(4H)-dione], the half-maximal inhibitory concentration (IC50) with BHK-21 cells is 0.05 to 5 mM; in assay [1] it was 0.05 to 5 mM; in assay [2], 0.05 to 5 mM; in assay [3], 5 to 20 mM; in assay [4], 0.05 to 5 mM; in assay [5], 0.05 to 5 mM. Besides, the figures for the 50% inhibitory concentration (IC50) in assay [6] and in assay [7] were 0.05 to 5 mM and 0.1 to 1 µM, respectively.

In the case of `O=C1c2c(nc3cc(N4CCNCC4)c(F)cc3c2OC2CC2)-c2cccn21` [Compound 340b, 9-cyclopropoxy-7-fluoro-6-(piperazin-1-yl)-10H-pyrrolizino[1,2-b]quinolin-10-one], the 50% inhibitory concentration (IC50) (in the assay with BHK-21 cells; in assay [1]; in assay [2]; in assay [3]; in assay [4]; in assay [5]) was 0.05 to 5 mM each time. The results for the half-maximal inhibitory concentration (IC50) in assay [6] and in assay [7] were 0.05 to 5 mM and 1 to 10 µM, respectively.

In the case of `O=C1c2c(n(C(=O)c3ccco3)c3cc(N4CCNCC4)c(F)cc3c2=O)-c2cccn21` [Compound 343a, 7-Fluoro-4-(furan-2-carbonyl)-6-(piperazin-1-yl)-9H-pyrrolizino[1,2-b]quinoline-9,10(4H)-dione], the half-maximal inhibitory concentration (IC50) is 0.05 to 5 mM in the assay on BHK-21 cells; 0.05 to 5 mM in assay [1]; 0.05 to 5 mM in assay [2]; less than 0.05 mM in assay [3]; 0.05 to 5 mM in assay [4]; 0.05 to 5 mM in assay [5]. Further, the IC50 was 0.05 to 5 mM in assay [6] and 1 to 10 µM in assay [7].

Take `O=C(Oc1c2c(nc3cc(N4CCNCC4)c(F)cc13)-c1cccn1C2=O)c1ccco1` [Compound 343b, 7-fluoro-10-oxo-6-(piperazin-1-yl)-10H-pyrrolizino[1,2-b]quinolin-9-ylfuran-2-carboxylate]: the IC50 (in the assay on BHK-21 cells; in assay [1]; in assay [2]; in assay [3]; in assay [4]; in assay [5]) was 0.05 to 5 mM each time. Further, the 50% inhibitory concentration (IC50) in assay [6] was 0.05 to 5 mM; in assay [7] it was 1 to 10 µM.

On to `O=C1c2c(n(CCO)c3cc(N4CCNCC4)c(F)cc3c2=O)-c2cccn21` [Compound 348a, 7-Fluoro-4-(2-hydroxyethyl)-6-(piperazin-1-yl)-9H-pyrrolizino[1,2-b]quinoline-9,10(4H)-dione], for which the IC50 in the assay with BHK-21 cells lay in the range of 20 to 100 mM; in assay [1], 0.05 to 5 mM; in assay [2], 0.05 to 5 mM; in assay [3], 0.05 to 5 mM; in assay [4] it was 0.05 to 5 mM; in assay [5], 0.05 to 5 mM. The figures for the IC50 in assay [6] and in assay [7] were 0.05 to 5 mM and 1 to 10 µM, respectively.

`O=C1c2c(nc3cc(N4CCNCC4)c(F)cc3c2OCCO)-c2cccn21` [Compound 348b, 7-fluoro-9-(2-hydroxyethoxy)-6-(piperazin-1-yl)-10H-pyrrolizino[1,2-b]quinolin-10-one]: the IC50 in the assay with BHK-21 cells was 0.05 to 5 mM; in assay [1], 0.05 to 5 mM; in assay [2], less than 0.05 mM; in assay [3], 0.05 to 5 mM; in assay [4], 0.05 to 5 mM; in assay [5], 0.05 to 5 mM. Besides, the figures for the 50% inhibitory concentration (IC50) in assay [6] and in assay [7] were 0.05 to 5 mM and 1 to 10 µM, respectively.

`C=CCn1c2c(c(=O)c3cc(F)c(N4CCNCC4)cc31)C(=O)n1cccc1-2` [Compound 349a, 4-Allyl-7-fluoro-6-(piperazin-1-yl)-9H-pyrrolizino[1,2-b]quinoline-9,10(4H)-dione]: the concentration for half-maximal inhibition (IC50) (in the assay with BHK-21 cells; in assay [1]; in assay [2]; in assay [3]; in assay [4]; in assay [5]) was 0.05 to 5 mM each time. Moreover, the IC50 in assay [6] is 0.05 to 5 mM; in assay [7] it was 1 to 10 µM.

With `C=CCOc1c2c(nc3cc(N4CCNCC4)c(F)cc13)-c1cccn1C2=O` [Compound 349b, 9-(allyloxy)-7-fluoro-6-(piperazin-1-yl)-10H-pyrrolizino[1,2-b]quinolin-10-one], the IC50 (with BHK-21 cells; in assay [1]; in assay [2]; in assay [3]; in assay [4]; in assay [5]) was 0.05 to 5 mM each time. Besides, the results for the IC50 in assay [6] and in assay [7] were 0.05 to 5 mM and 1 to 10 µM, respectively.

As for `CC(C)=CCn1c2c(c(=O)c3cc(F)c(N4CCNCC4)cc31)C(=O)n1cccc1-2` [Compound 354a, 7-Fluoro-4-(3-methylbut-2-en-1-yl)-6-(piperazin-1-yl)-9H-pyrrolizino[1,2-b]quinoline-9,10(4H)-dione], the IC50 with BHK-21 cells fell in the range of 0.05 to 5 mM; in assay [1], 0.05 to 5 mM; in assay [2] it was 5 to 20 mM; in assay [3], 0.05 to 5 mM; in assay [4], 0.05 to 5 mM; in assay [5], 0.05 to 5 mM. Moreover, the IC50 in assay [6] is less than 0.05 mM; in assay [7] it was 1 to 10 µM.

As a reminder, the IC50 is the midpoint of a concentration-inhibition curve.
